Experimental data reported in patent US8202863B2 (Aventis Pharmaceuticals Inc., priority 2005, dated 2012).

molecular target: human h-PGDS (Homo sapiens, UniProt O60760); assay: Enzyme Immunoassay (EIA) method (Assay 2); type: biochemical; conditions: assigned
Text: The compounds of the present invention can be tested for enzymatic inhibiting activity against PGD2 Synthase according to either one of the following assays.
Assay 2: Enzyme Immunoassay (EIA) Method
• a. Preparation of 0.1M K2HPO4/KH2PO4 buffer (pH ˜7.4) • Prepare 0.1 M KH2PO4 from 1M KH2PO4 (Sigma, Cat# P-8709) • Prepare 0.1 M K2HPO4 from powder of K2HPO4 (Fisher, BP363-500) • Mix 0.1 M K2HPO4 with 0.1 M KH2PO4 to adjust pH to 7.4. • b. Preparation of 0.5% γ-globulin • Add 0.1 g of γ-globulin (Sigma, Cat# G-5009) to 20 mL 0.1 M K2HPO4/KH2PO4 buffer (pH ˜7.4) and make 1-ml/vial aliquots and store in −80° C. • c. Preparation of 100 mM GSH • Add 307 mg of GSH (Sigma, Cat# G-6529) to 10 mL 0.1 M K2HPO4/KH2PO4 buffer (pH ˜7.4) and store at −80° C. • d. Preparation of Reaction buffer: • 198 mL of 0.1M K2HPO4/KH2PO4 buffer (pH ˜7.4) • 2 mM GSH—Prepared from 100 mM GSH • 0.4 g Glycerol • 2 mL of 0.5% γ-globulin • Add 0.4 g of glycerol and 2 mL of 0.5% γ-globulin to 198 mL of 0.1 M K2HPO4/KH2PO4 • buffer (pH7.4). • Add 0.4 mL of 100 mM GSH to 19.6 ml reaction buffer before the assay (enough for two 96-well plates). • e. Preparation of FeCl2/citric acid stopping solution: (8 mg/mL FeCl2, 0.1 M citric acid) • Add 40 mg fresh FeCl2 (IGN, Cat# 158046) to 5 ml 0.1 M citric acid (Sigma, Cat# C0759). • f. Preparation of MOX reagent: • 10% EtOH-Add 1 mL of EtOH to 9 mL of ultra pure H2O • Dissolve 0.1 g of methoxylamine (Cayman, Cat# 400036/) in 10% EtOH (10 mL). • Add 0.82 g of sodium acetate (Cayman, Cat#400037) to MOX solution and dissolve. II. Materials and Method • Dimethylsulfoxide (DMSO; Sigma; Cat# D2650) • Prostaglandin D2-MOX express EIA kit (Caymen Chemical, Catalog No. 500151)
Before the assay, cool down 10 mL of acetone in polypropylene tubes and empty 96 well plates in ice. All the procedures except compound dilution are performed on ice.
• 1. Dilute Compound in DMSO
• 2. Dilute 2 μL of each above concentration of compound to 38 μL of reaction buffer in 96-well plates and mix. IV. Enzyme and Substrate Solution Preparation • 1. Preparation of 0.39 ng/μL enzyme solution (0.35 ng/μL at final after compound addition). • Mix 4 μL of 4 mg/mL human h-PGDS with 396 μL of reaction buffer (to give enzyme concentration 40 μg/mL). Add 46.8 μL of 40 μg/mL h-PGDS to 4.753 mL of reaction buffer to give a total volume of 4.8 mL • 2. Preparation of Substrate Solution (PGH2): Add 0.375 mL of 0.1 mg/mL of PGH2 to 1.625 mL acetone. V. Enzyme Reaction: • 1. Add 60 μL of enzyme solution to compound well and positive control (without compound) in U-bottom polypropylene plate on ice. • 2. Add 60 μL of reaction buffer and 6.6 μL of 5% DMSO in reaction buffer into negative control wells in the plate. • 3. Add 6.6 μL of diluted compound in reaction buffer to the compound wells and mix. • 4. Add 6.6 μL of 5% DMSO in reaction buffer to the positive control well. • 5. Incubate the plate in ice for at least 30 min. • 6. Add 20 μL of substrate (PGH2) solution to compound, negative and positive control wells in the U-bottom 96 well plate on ice. • 7. Dry the plate in cold room for about 25-28 min. • 8. Pipette 45 μL of enzyme solution (above) into 96-wells with dried PGH2 and mix 3 times. Incubate on the ice for 1 min. • 9. Add 45 μL of FeCl2 solution into each wells and mix. • 10. Add 90 μL of MOX solution and mix. • 11. Incubate for 30 min at 60° C. • 12. Dilute the samples 2500× with EIA buffer. VI. EIA assay • Perform the assay according to the procedure in EIA kit provided by Cayman. […]

Sequence of human h-PGDS (O60760 whole entry): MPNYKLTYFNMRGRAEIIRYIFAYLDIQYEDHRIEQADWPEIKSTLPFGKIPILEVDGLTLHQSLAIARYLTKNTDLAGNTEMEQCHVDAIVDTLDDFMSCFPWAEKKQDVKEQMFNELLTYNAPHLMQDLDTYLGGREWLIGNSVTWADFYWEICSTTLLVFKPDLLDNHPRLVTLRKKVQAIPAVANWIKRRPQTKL

Compound	IC50 [µM]
NS(=O)(=O)c1ccc(CNC(=O)c2cnc(-n3cccn3)nc2)cc1 [Example 117, 2-Pyrazol-1-yl-pyrimidine-5-carboxylic acid 4-sulfamoyl-benzylamide]	0.266
CN(C)CCNS(=O)(=O)c1cccc(CNC(=O)c2cnc(-c3cccc(F)c3)nc2)c1 [Example 63, 2-(3-Fluoro-phenyl)-pyrimidine-5-carboxylic acid 3-(2-dimethylamino-ethylsulfamoyl)-benzylamide]	0.045
Cc1nc(-c2ncc(C(=O)NC3CCOCC3)cn2)cs1 [Example 118, 2-(2-Methyl-thiazol-4-yl)-pyrimidine-5-carboxylic acid (tetrahydro-pyran-4-yl)-amide]	0.082
CN1CCC(NC(=O)c2cnc(-c3ccccc3)nc2)CC1 [Example 38, 2-Phenyl-pyrimidine-5-carboxylic acid (1-methyl-piperidin-4-yl)-amide]	0.096
NS(=O)(=O)c1cccc(CNC(=O)c2cnc(-c3cccc(F)c3)nc2)c1 [Example 55, 2-(3-Fluoro-phenyl)-pyrimidine-5-carboxylic acid 3-sulfamoyl-benzylamide]	0.031
CN(C)S(=O)(=O)CCNC(=O)c1cnc(-c2ccccc2)nc1 [Example 109, 2-Pheny-pyrimidine-5-carboxylic acid (2-dimethylsulfamoyl-ethyl)-amide]	0.082
CNS(=O)(=O)c1cccc(CNC(=O)c2cnc(-c3cccc(F)c3)nc2)c1 [Example 97, 2-(3-Fluoro-phenyl)-pyrimidine-5-carboxylic acid 3-methylsulfamoyl-benzylamide]	0.0095
Cc1nc(-c2cccc(F)c2)ncc1C(=O)NCc1cccc(CS(=O)(=O)NC(C)C)c1 [Example 71, 2-(3-Fluoro-phenyl)-4-methyl-pyrimidine-5-carboxylic acid 3-(isopropylsulfamoyl-methyl)-benzylamide]	0.034
CNS(=O)(=O)c1cccc(CNC(=O)c2cnc(-c3cccc(F)c3)nc2C)c1 [Example 85, 2-(3-Fluoro-phenyl)-4-methyl-pyrimidine-5-carboxylic acid 3-methylsulfamoyl-benzylamide]	0.106
O=C(NCc1cccc(S(=O)(=O)NCCCO)c1)c1cnc(-c2cccc(F)c2)nc1 [Example 49, 2-(3-Fluoro-phenyl)-pyrimidine-5-carboxylic acid 3-(3-hydroxy-propylsulfamoyl)-benzylamide]	0.022
CN(C)CC(C)(C)CNS(=O)(=O)c1cccc(CNC(=O)c2cnc(-c3cccc(F)c3)nc2)c1 [Example 65, 2-(3-Fluoro-phenyl)-pyrimidine-5-carboxylic acid 3-(3-dimethylamino-2,2-dimethyl-propylsulfamoyl)-benzylamide]	0.035
O=C(Nc1nc(-c2ccccc2)ns1)c1cnc(-c2ccccc2)nc1 [Example 110, 2-Phenyl-pyrimidine-5-carboxylic acid (3-phenyl-[1,2,4]thiadiazol-5-yl)-amide]	0.03
Cc1nc(-c2cccc(F)c2)ncc1C(=O)NCc1cccc(CNS(C)(=O)=O)c1 [Example 68, 2-(3-Fluoro-phenyl)-4-methyl-pyrimidine-5-carboxylic acid 3-(methanesulfonylamino-methyl)-benzylamide]	0.0485
O=C(NCc1cccc(S(=O)(=O)NCCN2CCOCC2)c1)c1cnc(-c2cccc(F)c2)nc1 [Example 56]	0.037
NS(=O)(=O)c1ccc(NC(=O)c2cnc(-c3ccccc3)nc2)cc1 [Example 30, 2-Phenyl-pyrimidine-5-carboxylic acid (4-sulfamoyl-phenyl)-amide]	0.005
O=C(NCc1ccccc1)c1cnc(-c2ccccc2)nc1 [Example 1, 2-Phenyl-pyrimidine-5-carboxylic acid benzylamide]	0.01
NS(=O)(=O)CCNC(=O)c1cnc(-c2ccccc2)nc1 [Example 108, 2-Pheny-pyrimidine-5-carboxylic acid (2-sulfamoyl-ethyl)-amide]	0.055
COCCCNS(=O)(=O)c1cccc(CNC(=O)c2cnc(-c3cccc(F)c3)nc2)c1 [Example 51, 2-(3-Fluoro-phenyl)-pyrimidine-5-carboxylic acid 3-(3-methoxy-propylsulfamoyl)-benzylamide]	0.037
O=C(NCc1cccc(S(=O)(=O)NC2CC2)c1)c1cnc(-c2cccc(F)c2)nc1 [Example 48, 2-(3-Fluoro-phenyl)-pyrimidine-5-carboxylic acid 3-cyclopropylsulfamoyl-benzylamide]	0.132
CNS(=O)(=O)c1cccc(CNC(=O)c2cnc(-c3cc(F)cc(F)c3)nc2)c1 [Example 40, 2-(3,5-Difluoro-phenyl)-pyrimidine-5-carboxylic acid 3-methylsulfamoyl-benzylamide]	0.049
CCNS(=O)(=O)c1cccc(CNC(=O)c2cnc(-c3cccc(F)c3)nc2)c1 [Example 45, 2-(3-Fluoro-phenyl)-pyrimidine-5-carboxylic acid 3-ethylsulfamoyl-benzylamide]	0.058
CC(C)(CO)NS(=O)(=O)c1cccc(CNC(=O)c2cnc(-c3cccc(F)c3)nc2)c1 [Example 54, 2-(3-Fluoro-phenyl)-pyrimidine-5-carboxylic acid 3-(2-hydroxy-1,1-dimethyl-ethylsulfamoyl)-benzylamide]	0.06
